Experimental data taken from ChEMBL document CHEMBL1201862, “PubChem BioAssay data set” (2004).
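Cultured in 96-well plates, cells were exposed to test compound for 48 hours across five concentrations. At the GI50, growth is halved.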 Activity calls are given as the source filed them. Rule as the data show it: active = GI50 up to about 1.1 µM and inactive = higher.

What was measured:
Assay in all cases: inhibition of tumour cell growth, NCI panel, 48 h
SK-MEL-2 = system: SK-MEL-2
U-251 = system: U-251
OVCAR-3 = system: OVCAR-3
K562 = system: K562
MCF7 = system: MCF7
HCT-15 = system: HCT-15
PC-3 = system: PC-3
CCRF-CEM = system: CCRF-CEM
SF-268 = system: SF-268
NCI-H522 = system: NCI-H522
RPMI-8226 = system: RPMI-8226
SF-295 = system: SF-295
SNB-75 = system: SNB-75
T47D = system: T47D
M14 = system: M14
NCI-H226 = system: NCI-H226
TK-10 = system: TK-10
786-0 = system: 786-0
SK-MEL-28 = system: SK-MEL-28
SW-620 = system: SW-620

Structure (SMILES) | GI50 (SK-MEL-2) | GI50 (U-251) | GI50 (OVCAR-3) | GI50 (K562) | GI50 (MCF7) | GI50 (HCT-15) [µM] | GI50 (PC-3) | GI50 (CCRF-CEM) | GI50 (SF-268) | GI50 (NCI-H522) | GI50 (RPMI-8226) | GI50 (SF-295) | GI50 (SNB-75) | GI50 (T47D) | GI50 (M14) | GI50 (NCI-H226) | GI50 (TK-10) | GI50 (786-0) | GI50 (SK-MEL-28) | GI50 (SW-620)
N#Cc1ccc(OC(=O)c2ccc(NC(=N)N)cc2)cc1.c1ccncc1 | > 100 µM (inactive) | 61.2 µM (inactive) | 30.1 µM (inactive) | 42 µM (inactive) | 39.9 µM (inactive) | 46.9 | > 100 µM (inactive) | 22.2 µM (inactive) | 51.1 µM (inactive) | 30 µM (inactive) | 40.8 µM (inactive) | > 100 µM (inactive) | 43.9 µM (inactive) | 42.5 µM (inactive) | > 100 µM (inactive) | 50 µM (inactive) | > 100 µM (inactive) | 66.1 µM (inactive) | > 100 µM (inactive) | 35.5 µM (inactive)
CCN(CC)C1Oc2cc3c(cc2C(c2cccc(OC)c2O)C1C)OCO3 (stereo not given) | 4.52 µM (inactive) | 3.69 µM (inactive) | 1.94 µM (inactive) | 3.75 µM (inactive) | 9.55 µM (inactive) | 4.79 | 3.63 µM (inactive) | 3.94 µM (inactive) | 6.62 µM (inactive) | 2.41 µM (inactive) | 3.24 µM (inactive) | 3.08 µM (inactive) | 2.81 µM (inactive) | 14.5 µM (inactive) | 2.98 µM (inactive) | 3.44 µM (inactive) | 16.4 µM (inactive) | 9.79 µM (inactive) | 5.96 µM (inactive) | 4.33 µM (inactive)
O=C(O)C(Cl)(c1ccccc1)c1ccccc1 | > 100 µM (inactive) | > 100 µM (inactive) | > 100 µM (inactive) | 83 µM (inactive) | > 100 µM (inactive) | > 100 | > 100 µM (inactive) | > 100 µM (inactive) | > 100 µM (inactive) | > 100 µM (inactive) | > 100 µM (inactive) | > 100 µM (inactive) | > 100 µM (inactive) | > 100 µM (inactive) | > 100 µM (inactive) | > 100 µM (inactive) | > 100 µM (inactive) | > 100 µM (inactive) | > 100 µM (inactive) | > 100 µM (inactive)
O=c1c2ccccc2nc(-c2ccccc2)n1/N=C/c1ccccc1[N+](=O)[O-] | 74.5 µM (inactive) | 16.1 µM (inactive) | > 100 µM (inactive) | > 100 µM (inactive) | > 78.2 µM (inactive) | > 100 | > 100 µM (inactive) | > 100 µM (inactive) | 16.3 µM (inactive) | > 53.2 µM (inactive) | > 100 µM (inactive) | 22.8 µM (inactive) | 7.41 µM (inactive) | 86.9 µM (inactive) | > 100 µM (inactive) | 61.1 µM (inactive) | 28.3 µM (inactive) | 21.9 µM (inactive) | > 100 µM (inactive) | > 100 µM (inactive)
CC(C)(C)c1ccc(OCCOc2ccc(C(C)(C)C)cc2N)c(N)c1 | > 100 µM (inactive) | 17.1 µM (inactive) | > 100 µM (inactive) | > 100 µM (inactive) | > 100 µM (inactive) | 37.5 | > 100 µM (inactive) | 22.9 µM (inactive) | > 100 µM (inactive) | 11.4 µM (inactive) | 9.89 µM (inactive) | > 100 µM (inactive) | 47.8 µM (inactive) | 25.6 µM (inactive) | > 100 µM (inactive) | > 100 µM (inactive) | 69.3 µM (inactive) | 29.9 µM (inactive) | > 100 µM (inactive) | > 100 µM (inactive)
COC(OC)C1(c2ccccc2)Oc2ccccc2C1=O (stereo not given) | > 100 µM (inactive) | > 100 µM (inactive) | > 100 µM (inactive) | 65.2 µM (inactive) | > 100 µM (inactive) | > 100 | > 100 µM (inactive) | > 100 µM (inactive) | > 100 µM (inactive) | > 100 µM (inactive) | > 100 µM (inactive) | 90.2 µM (inactive) | > 100 µM (inactive) | > 100 µM (inactive) | > 100 µM (inactive) | > 100 µM (inactive) | > 100 µM (inactive) | > 100 µM (inactive) | > 100 µM (inactive) | > 100 µM (inactive)
